Measured values reported in patent publication US20240309016A1, “MACROCYCLIC HETEROCYCLE COMPOUNDS AND USE THEREOF” (TAKEDA PHARMACEUTICAL COMPANY LIMITED, priority 2023, published 2024).
Like-named read-outs stand apart in the source and are kept apart here.

Key:
[1] = molecular target: T1, human OX2 receptor (Homo sapiens, UniProt O43614); assay: Measurement of orexin type 2 receptor agonist activity (Experimental Example 3; calcium 5 dye, FLIPR Tetra); type: cell-based; details: compound at 1 μM; CHO cells expressing human OX2 receptor; DMSO = 0%, 10 nM orexin A (human) = 100%
T1 construct: expressed in transfected cells
T1 sequence (O43614 1-444): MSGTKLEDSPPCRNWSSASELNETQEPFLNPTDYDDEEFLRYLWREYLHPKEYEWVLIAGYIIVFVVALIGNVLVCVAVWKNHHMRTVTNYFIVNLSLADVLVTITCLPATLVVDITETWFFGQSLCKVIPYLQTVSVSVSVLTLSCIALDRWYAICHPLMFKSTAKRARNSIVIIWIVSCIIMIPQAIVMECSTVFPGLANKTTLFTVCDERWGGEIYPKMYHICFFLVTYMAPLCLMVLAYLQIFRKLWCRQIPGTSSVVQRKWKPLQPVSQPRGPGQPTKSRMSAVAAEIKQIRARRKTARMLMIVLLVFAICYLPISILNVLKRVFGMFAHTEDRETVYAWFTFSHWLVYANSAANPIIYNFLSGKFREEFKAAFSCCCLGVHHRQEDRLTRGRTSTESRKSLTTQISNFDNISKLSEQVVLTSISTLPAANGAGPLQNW
Method: In order to obtain cell clones that stably express human orexin type 2 receptor, human orexin type 2 (residues 1-444, NCBI Reference Sequence: AK314279) was constructed in a pcDNA3.1 (+) vector (Invitrogen) to express in mammalian cells. This plasmid DNA was transfected into CHO-K1 cells by electroporation, and stable clones were obtained by limiting dilution using resistance to G418 as a selection marker.
CHO cells in which human OX2 receptor was forcibly expressed were seeded at 5,000 cells/well into a 384-well black transparent bottom plate (Costar) in 25 ul complete media, and were then incubated at 37° C., 5% CO2 for 1 day. The next day, 25 ul of 2× calcium 5 dye (Molecular Devices) in assay buffer (HBSS (Thermo Fisher Scientific), 20 mM HEPES (Thermo Fisher Scientific), 2.5 mM probenecid). After incubation in a 5% CO2 incubator at 37° C. for 40 minutes, it was incubated at room temperature for another 20 minutes. Add 5 μL/well of the test compound diluted with assay buffer B (HBSS, 20 mM HEPES), using FLIPR Tetra (Molecular Devices) to measure the fluorescence value every 1 second for 1 minute, and then every 2 seconds for 1 minute. It was measured for 1 minute and 40 seconds. The amount of fluorescence value when DMSO is added instead of the test compound is defined as 0%, and the amount of fluorescence value when orexin A (human) (Peptide Institute) with a final concentration of 10 nM is added is defined as 100%. The activity (%) of the test compound was calculated.

Row | OX2R agonist activity (1 μM, %) [1] | Structure (SMILES) | ring closure, yield of all isomers (from CCS(=O)(=O)N[C@@H]1[C@H](Cc2cccc(Oc3nc(NCC(=O)O)ccc3C)c2F)NCC1(F)F, amide bond, HATU / DIPEA, DMF, 1.74 mM, 25.0 °C, 12.0 h) | ring closure, yield of all isomers (from CCS(=O)(=O)N[C@@H]1[C@H](Cc2cccc(C(F)(F)c3nc(CN)ccc3C)c2F)NCC1(F)F, other bond, CDI/DIPEA, THF, 11.0 mM, 45.0 °C, 16.0 h) | ring closure, yield of all isomers (from CCS(=O)(=O)N[C@@H]1[C@H](Cc2cccc(Cc3nc(O[C@@H](C)C(=O)O)ccc3C)c2F)NCC1(F)F, amide bond, HATU/DIPEA, DMF, 2.83 mM, 25.0 °C, 16.0 h)
1 | 97% | CCS(=O)(=O)N[C@@H]1[C@@H]2Cc3cccc(c3F)Oc3nc(ccc3C)NCC(=O)N2CC1(F)F [Example 99, N-[(15aS,16R)-17,17,20-trifluoro-7-methyl-1-oxo-2,3,15a,16,17,18-hexahydro-1H,15H-4,8-(azeno)-14,10-(metheno)pyrrolo[1,2-j][1,7,10]oxadiazacyclo-heptadecin-16-yl]ethanesulfonamide] | 13.3% | – | –
2 | 84% | CCS(=O)(=O)N[C@@H]1[C@@H]2Cc3cccc(c3F)C(F)(F)c3nc(ccc3C)CNC(=O)N2CC1(F)F [Example 100, N-[(15aS,16R)-9,9,17,17,20-pentafluoro-7-methyl-1-oxo-2,3,15a,16,17,18-hexahydro-1H,9H,15H-4,8-(azeno)-14,10-(metheno)pyrrolo[1,2-c][1,3]diazacycloheptadecin-16-yl]ethanesulfonamide] | – | 30.8% | –
3 | 101% | CC(C)S(=O)(=O)N[C@@H]1[C@@H]2Cc3cccc(c3F)Oc3nc(ccc3Cl)CNC(=O)N2CC1(F)F [Example 108, N-[(15aS,16R)-7-chloro-17,17,20-trifluoro-1-oxo-2,3,15a,16,17,18-hexahydro-1H,15H-4,8-(azeno)-10,14-(metheno)pyrrolo[1,2-j][1,8,10]oxadiazacyclo-heptadecin-16-yl]propane-2-sulfonamide] | – | – | –
4 | 108% | Cc1cc(F)c2nc1Oc1cccc(c1F)C[C@H]1[C@@H](NS(=O)(=O)C(C)C)C(F)(F)CN1C(=O)NC2 [Example 109, N-[(15aS,16R)-5,17,17,20-tetrafluoro-7-methyl-1-oxo-2,3,15a,16,17,18-hexahydro-1H,15H-4,8-(azeno)-10,14-(metheno)pyrrolo[1,2-j][1,8,10]oxadiazacyclo-heptadecin-16-yl]propane-2-sulfonamide] | – | – | –
5 | 108% | CC(C)S(=O)(=O)N[C@@H]1[C@@H]2Cc3cccc(c3F)Oc3nc(ccc3C(F)F)CNC(=O)N2CC1(F)F [Example 110, N-[(15aS,16R)-7-(difluoromethyl)-17,17,20-trifluoro-1-oxo-2,3,15a,16,17,18-hexahydro-1H,15H-4,8-(azeno)-10,14-(metheno)pyrrolo[1,2-j][1,8,10]oxadiazacyclo-heptadecin-16-yl]propane-2-sulfonamide] | – | – | –
6 | 103% | CCS(=O)(=O)N[C@@H]1[C@@H]2Cc3cccc(c3F)Cc3nc(ccc3C)O[C@@H](C)C(=O)N2CC1(F)F [Example 111, N-[(2S,15aS,16R)-17,17,20-trifluoro-2,7-dimethyl-1-oxo-1,2,15a,16,17,18-hexahydro-9H,15H-4,8-(azeno)-10,14-(metheno)pyrrolo[1,2-d][1,4]oxazacycloheptadecin-16-yl]ethanesulfonamide] | – | – | 11.8%
